One compound from patent publication US20170246144A1, “METHOD OF PREVENTING OR TREATING SPINOCEREBELLAR ATAXIA BY ADMINISTRATING SILIBININ” (National Taiwan Normal University, priority 2016, published 2017) can be followed below.

The subject of test [1] is nTBP/Q79-EGFP cells. As to the kind of experiment: Dot blot and western blotting of protein aggregation, anti-TBP (N12). The conditions noted are these: 15 μM, Dox 5 days. In kind it is cell-based, Human. How it is done: FIGS. 9A-9C show the effects of SB on protein aggregation in nTBP/Q79-EGFP cells after the induction of Dox, which were analyzed by western blotting and dot blot assays. 1.0×10^6 nTBP/Q36-EGFP cells or nTBP/Q79-EGFP cells were pretreated with 15 μM SB for 1 hour followed by the treatment of 10 μg/mL Dox. Cell lysates were analyzed using western blotting and dot blot assays with anti-TBP (N12) antibody. […] The values represent means±SD. Data were the mean values of three independent experiments.
In the present example, dot blot and western blotting methods were used to analyze whether silibinin can reduce the protein aggregation in nTBP/Q79-EGFP cells induced by Dox.
nTBP/Q36-EGFP cells and nTBP/Q79-EGFP cells were cultured in 6 cm petri-dish for 24 hours followed by the treatment of 15 μM silibinin for 1 hour and the treatment of […] and 10 μM RA for 5 days. The proteins were extracted from the treated cells and analyzed by dot blot and western blotting, wherein the primary antibody is TBP(N-12) antibody and the secondary antibody is HRP conjugated anti-rabbit antibody.

For test [2], the system named is nTBP/Q79-EGFP cells. The test is described as follows: MTT viability of Dox-induced nTBP/Q79-EGFP cells. The conditions noted are these: 15 μM, Dox induction 5 days. In kind it is cell-based, Human. As for the experimental part:
FIGS. 8A-8C show the effects of SB on improving the viability of nTBP/Q79-EGFP cells and inhibiting the expression levels of cleaved caspase-9, cleaved caspase-3, and cleaved PARP in nTBP/Q79-EGFP cells induced by doxycycline (Dox). FIG. 8A: The viabilities of 1.0×10^6 nTBP/Q36-EGFP cells and nTBP/Q79-EGFP cells which were pretreated with 15 μM SB for 1 hour followed by the induction of Dox for 1, 3, and 5 days were measured by MTT assay. FIG. 8B: 1.0×10^6 nTBP/Q36-EGFP cells and nTBP/Q79-EGFP cells were pretreated with 15 μM SB for 1 hour followed by the induction of Dox for 5 days. The levels of cleaved caspase-9, cleaved caspase-3, and cleaved PARP were detected by western blotting. Actin was used as a loading control. […] The results were shown as mean±SD, n=3, *p<0.05, comparing to the Dox group.
Human neuroblastoma SH-SY5Y cell line was obtained from American Type Culture Collection (ATCC). nTBP/Q36-EGFP cells (poly-Q of TATA-binding protein contains 36 glutamines in SH-SY5Y cells) and nTBP/Q79-EGFP cells (poly-Q of TATA-binding protein contains 79 glutamines in SH-SY5Y cells) were kindly supplied by Dr. Guey-Jen Lee-Chen, National Taiwan Normal University (NTNU). […]
The cell viability was measured using MTT colorimetric assay as mentioned previously. […]

Test [3] concerns SH-SY5Y cells. As to the kind of experiment: Western blotting of Bax and Bcl-2 after MSG. In kind it is cell-based, Human. The conditions noted are these: 15 μM, 100 mM MSG, 6 hours. As for the experimental part: The levels of Bax and Bcl-2 in 1×10^6 SH-SY5Y cells were measured by western blotting, wherein the control group (Ctrl) was untreated SH-SY5Y cells or the cells were treated with 100 mM MSG, 100 mM MSG+15 μM SB or 100 mM MSG+10 μM MK801 (MK) for 6 hours. Actin was used as a loading control.
In present embodiment, western blotting was performed to study whether silibinin protects SH-SY5Y cell from apoptosis due to glutamatergic excitotoxicity via mitochondria-dependent apoptosis pathway.
It is known that the reduction of Bcl-2 level and the increases of Bax level are related to the increases of free calcium ion in cytosol. Bcl-2 is a cell-survival protein and Bax is a pro-apoptotic protein and they both mediate the releases of cytochrome C from mitochondria. Therefore, Bcl-2 and Bax are used as indicators in the present embodiment.

The test system of test [4] is SCA17 transgenic mice. As to the kind of experiment: Rotarod test in SCA17 transgenic mice. The conditions noted are these: 4.5 mg/kg i.p. once every 2 days from 8 weeks old. Format: in vivo. How it is done:
FIGS. 10A-10F show the effects of SB on the body weight and motor performance in SCA17 transgenic mice. Mice were grouped into wild type-saline (WT-saline), transgenic-saline (TG-saline), and transgenic-SB treatment (TG-SB) groups. Mice were injected intraperitoneally with saline or SB (4.5 mg/kg) at 8-week old once every 2 days. […] FIG. 10E and FIG. 10F show respectively the stride length of front-limb/hind-limb at the right-side and the left-side. The values represent means±SD, n=6. *p<0.05, comparing to the TG-saline group.
Since the SCA17 mice were 8 weeks old, the mice were injected intraperitoneally with silibinin in saline at 4.5 mg/kg once every 2 days, designated as TG_SB group. The mice in TG_saline group were injected with same amount of saline.
At the 10th week, the rotarod test was performed to measure the motor coordination of the mice. The mice were trained prior to drug treatment. The mouse was placed on the rotarod with acceleration from 2 to 20 rpm for 5 minutes maintaining at 20 rpm for 5 more minutes to establish the baseline of the behavior of the mouse.
The condition was maintained at a linear acceleration from 4 to 30 rpm within 5 minutes during the testing period. The rotarod test was performed once every 2 weeks, since the mouse was 10 weeks old till 20 weeks old. […] The latency of fall was recorded. […]

The structures appear in SMILES notation.

In the case of `COc1cc(C2Oc3cc([C@H]4Oc5cc(O)cc(O)c5C(=O)[C@@H]4O)ccc3OC2CO)ccc1O` (stereo partly drawn) [silibinin], in test [1], the “reduction of protein aggregation, dot blot” value was 67% and the “reduction of protein aggregation, western blotting” value is 90%. In addition, the “increase of cell viability of nTBP/Q79-EGFP cells” value in test [2] is listed as “approximately 20%”. In addition, in test [3], the “increase of Bcl-2 level, compared to MSG only” value was “approximately 167%” and the “reduction of Bax level, compared to MSG only” value was found to be 80%. Besides, the “average time of the latency of fall, rotarod” value in test [4] came out at 393 ± 36 s.
